Test results: patent US12325696B2, “Indazole derivative, preparation method therefor, and pharmaceutical application thereof” (JIANGSU HENGRUI MEDICINE CO., LTD., priority 2019, dated 2025)

Legend:
[1] = tested on: estrogen receptor reporter gene; experiment: Inhibition of estrogen receptor reporter gene activity (ERE-luc luciferase) in MCF7/ERE-luc cells; type: cell-based; conditions: Homo sapiens, 0.1 nM β-estradiol, 20 hours, read-out: IC50 of inhibitory activity on the activity of the estrogen receptor reporter gene
Procedure, shortened: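 MCF7 cells stably carrying ERE-driven luciferase, in charcoal-stripped serum medium, were stimulated with 0.1 nM β-estradiol plus compound (nine 10-fold dilutions from 10 μM) for 20 h at 37° C. ONE-Glo luminescence was read, and IC50 was fitted from signal versus log concentration.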

MCF7 cell = experiment: Inhibition of proliferation of MCF7 cell (CellTiter-Glo, 144 hours); type: cell-based; conditions: Homo sapiens; for IC50: MCF7, CellTiter-Glo, read-out: IC50 of the inhibitory effect on the proliferation of MCF7 cell; for Emax: MCF7 cell proliferation, read-out: Maximum inhibition
Procedure, shortened: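 Seeded overnight, MCF7 cells were treated in MEM with 2% FBS with nine 4-fold dilutions from 100 nM (0.5% DMSO blank). Incubation 144 h at 37° C, 5% CO2. CellTiter-Glo luminescence read; IC50 from signal versus log concentration.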

MCF7 D538G = experiment: Inhibition of proliferation of MCF7 cell expressing ERα D538G mutant; type: cell-based; conditions: Homo sapiens, 144 hours; for Emax: read-out: Maximum inhibition
Procedure, shortened: (§1)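 MCF7 cells stably expressing lentiviral ERα Y537S or D538G mutants, seeded 3,000 cells/well, then exposed in 2% FBS MEM to nine 4-fold dilutions from 100 nM for 144 h at 37° C. Viability read by CellTiter-Glo luminescence; IC50 fitted from concentration-response.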

MCF7 ERαY537S = experiment: Inhibition of proliferation of MCF7 cell expressing ERα Y537S mutant; type: cell-based; conditions: Homo sapiens, 144 hours; for Emax: read-out: Maximum inhibition
Procedure, shortened: as §1

[2] = molecular target: estrogen receptor ERα wild-type (Homo sapiens (Human), UniProt P03372); experiment: Covalent modification of ERα wild-type LBD by high-resolution mass spectrometry; type: binding; conditions: after 24 hours; 2 μM protein, 10 μM compound, 4° C.
Protocol: (§2) The ligand binding domain (LBD, aa296-554) of estrogen receptor ERα wild-type and ERα Y537S mutant-type was expressed in E. coli and purified. 2 μM ERα wild-type or ERα Y537S mutant-type protein and 10 μM compound were added to a buffer solution containing 50 mM Tris-HCl, pH7.5, 150 mM NaCl, 1 mM TCEP and 5% glycerol and mixed well. The solution was incubated at 4° C. for 24 hours, followed by high-resolution mass spectrometry (Agilent Technologies, Agilent Q-tof 6530) assay. Alternatively, 1 μM ERα wild-type or ERα Y537S mutant-type protein and 3 μM compound were added to a buffer solution containing 50 mM Tris-HCl, pH7.5, 150 mM NaCl, 1 mM TCEP and 5% glycerol and mixed well. The solution was incubated at 37° C. for 15 minutes, followed by high-resolution mass spectrometry assay. In the mass spectrometry assay results, the peak whose molecular weight is the sum of the molecular weight of the protein and compound is the product of covalent modification. The percentage of covalent modification is obtained by calculating the ratio of […] to total protein.

[3] = molecular target: estrogen receptor ERα Y537S mutant-type (Homo sapiens (Human), UniProt P03372, Y537S); experiment: Covalent modification of ERα Y537S mutant-type LBD by high-resolution mass spectrometry; type: binding; conditions: after 24 hours; 2 μM protein, 10 μM compound, 4° C.
Protocol: as §2

Nav1.5 ion channel = Nav1.5 ion channel (Homo sapiens (Human), UniProt Q14524); experiment: Manual patch clamp inhibition of Nav1.5 current in HEK293 cell; type: cell-based; conditions: whole-cell patch clamp, read-out: IC50 on inhibiting the Nav1.5 channel activity
Protocol: The purpose of the experiment is to investigate the effect of the compounds on Nav1.5 ion channel in an […] experiment. Nav1.5 ion channel is stably expressed on HEK293 cell. After the Nav1.5 current becomes stable, the Nav1.5 currents before and after the administration of the compound are compared so as to obtain the effect of the compound on the Nav1.5 ion channel.
Extracellular fluid: NaCl, 137 mM; KCl, 4 mM; CaCl2), 1.8 mM; MgCl2, 1 mM; HEPES, 10; glucose, 10 mM; pH 7.4 (NaOH titration).
Intracellular fluid: aspartic acid, 140 mM; MgCl2, 2 mM; EGTA, 11 mM; HEPES, 10 mM; pH 7.2 (CsOH titration).
The test compound was dissolved in dimethyl sulfoxide (DMSO) at a stock concentration of 9 mM. The stock solution of the test compound was dissolved in the extracellular fluid on the day of the test and formulated into the required concentration.
1) The compound was formulated into solutions with specified concentrations. The solutions were added to the pipelines respectively in order from high to low concentration, and the pipelines were marked.
2) The cell was transferred to the perfusion tank, and perfused with the extracellular fluid. The intracellular fluid was stored in small batches in a −80° C. refrigerator, and melted on the day of the experiment. The electrode was pulled with PC-10 (Narishige, Japan). Recording was carried out with the whole-cell patch clamp, and the noise was filtered at one-fifth of the sampling frequency.
3) All compounds were perfused with a perfusion system that uses its own gravity. Each concentration was tested in at least two cells. After the current stabilized (or after 5 minutes), the blocking effect of the compound was calculated by comparing the changes in the current before and after the administration of the compound.
The cell was clamped at −80 mV. The cell was depolarized to Vhalf with a square wave lasting 8 milliseconds, hyperpolarized to −120 mV with a square wave lasting 20 milliseconds, and depolarized to −10 mV with a square wave lasting 20 milliseconds to obtain the Nav1.5 current. This procedure was repeated every 15 seconds. The maximum current caused by the −10 mV square wave was measured. After the current became stable, the test compound was perfused. After the response became stable, the blocking intensity was calculated.
The data was stored in the computer system for analysis. Data collection and analysis were carried out by pCLAMP 10 (Molecular Devices, Union City, CA). Stable current means that the absolute average value of the peak current of four consecutive scans exceeds 200 pA and the CV value is less than 10%, or the average value of the peak current of four consecutive scans is between 200 pA and 50 pA and the CV value is less than 30%. The average value of the last four current peaks after the current stabilized was used to calculate the effect of the compound at the concentration.

Chain of estrogen receptor ERα wild-type (P03372 296-554): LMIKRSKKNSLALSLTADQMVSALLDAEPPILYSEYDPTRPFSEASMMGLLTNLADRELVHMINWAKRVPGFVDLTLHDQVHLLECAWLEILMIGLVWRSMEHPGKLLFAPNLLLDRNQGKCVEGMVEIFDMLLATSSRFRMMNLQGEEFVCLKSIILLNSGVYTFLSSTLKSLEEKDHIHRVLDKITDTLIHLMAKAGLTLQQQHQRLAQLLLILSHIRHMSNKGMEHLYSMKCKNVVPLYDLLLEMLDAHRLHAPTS
Chain of estrogen receptor ERα Y537S mutant-type (P03372 296-554 Y537S): as the sequence (P03372 296-554) above, with Y242S counted along it
Chain of Nav1.5 ion channel (Q14524 whole entry): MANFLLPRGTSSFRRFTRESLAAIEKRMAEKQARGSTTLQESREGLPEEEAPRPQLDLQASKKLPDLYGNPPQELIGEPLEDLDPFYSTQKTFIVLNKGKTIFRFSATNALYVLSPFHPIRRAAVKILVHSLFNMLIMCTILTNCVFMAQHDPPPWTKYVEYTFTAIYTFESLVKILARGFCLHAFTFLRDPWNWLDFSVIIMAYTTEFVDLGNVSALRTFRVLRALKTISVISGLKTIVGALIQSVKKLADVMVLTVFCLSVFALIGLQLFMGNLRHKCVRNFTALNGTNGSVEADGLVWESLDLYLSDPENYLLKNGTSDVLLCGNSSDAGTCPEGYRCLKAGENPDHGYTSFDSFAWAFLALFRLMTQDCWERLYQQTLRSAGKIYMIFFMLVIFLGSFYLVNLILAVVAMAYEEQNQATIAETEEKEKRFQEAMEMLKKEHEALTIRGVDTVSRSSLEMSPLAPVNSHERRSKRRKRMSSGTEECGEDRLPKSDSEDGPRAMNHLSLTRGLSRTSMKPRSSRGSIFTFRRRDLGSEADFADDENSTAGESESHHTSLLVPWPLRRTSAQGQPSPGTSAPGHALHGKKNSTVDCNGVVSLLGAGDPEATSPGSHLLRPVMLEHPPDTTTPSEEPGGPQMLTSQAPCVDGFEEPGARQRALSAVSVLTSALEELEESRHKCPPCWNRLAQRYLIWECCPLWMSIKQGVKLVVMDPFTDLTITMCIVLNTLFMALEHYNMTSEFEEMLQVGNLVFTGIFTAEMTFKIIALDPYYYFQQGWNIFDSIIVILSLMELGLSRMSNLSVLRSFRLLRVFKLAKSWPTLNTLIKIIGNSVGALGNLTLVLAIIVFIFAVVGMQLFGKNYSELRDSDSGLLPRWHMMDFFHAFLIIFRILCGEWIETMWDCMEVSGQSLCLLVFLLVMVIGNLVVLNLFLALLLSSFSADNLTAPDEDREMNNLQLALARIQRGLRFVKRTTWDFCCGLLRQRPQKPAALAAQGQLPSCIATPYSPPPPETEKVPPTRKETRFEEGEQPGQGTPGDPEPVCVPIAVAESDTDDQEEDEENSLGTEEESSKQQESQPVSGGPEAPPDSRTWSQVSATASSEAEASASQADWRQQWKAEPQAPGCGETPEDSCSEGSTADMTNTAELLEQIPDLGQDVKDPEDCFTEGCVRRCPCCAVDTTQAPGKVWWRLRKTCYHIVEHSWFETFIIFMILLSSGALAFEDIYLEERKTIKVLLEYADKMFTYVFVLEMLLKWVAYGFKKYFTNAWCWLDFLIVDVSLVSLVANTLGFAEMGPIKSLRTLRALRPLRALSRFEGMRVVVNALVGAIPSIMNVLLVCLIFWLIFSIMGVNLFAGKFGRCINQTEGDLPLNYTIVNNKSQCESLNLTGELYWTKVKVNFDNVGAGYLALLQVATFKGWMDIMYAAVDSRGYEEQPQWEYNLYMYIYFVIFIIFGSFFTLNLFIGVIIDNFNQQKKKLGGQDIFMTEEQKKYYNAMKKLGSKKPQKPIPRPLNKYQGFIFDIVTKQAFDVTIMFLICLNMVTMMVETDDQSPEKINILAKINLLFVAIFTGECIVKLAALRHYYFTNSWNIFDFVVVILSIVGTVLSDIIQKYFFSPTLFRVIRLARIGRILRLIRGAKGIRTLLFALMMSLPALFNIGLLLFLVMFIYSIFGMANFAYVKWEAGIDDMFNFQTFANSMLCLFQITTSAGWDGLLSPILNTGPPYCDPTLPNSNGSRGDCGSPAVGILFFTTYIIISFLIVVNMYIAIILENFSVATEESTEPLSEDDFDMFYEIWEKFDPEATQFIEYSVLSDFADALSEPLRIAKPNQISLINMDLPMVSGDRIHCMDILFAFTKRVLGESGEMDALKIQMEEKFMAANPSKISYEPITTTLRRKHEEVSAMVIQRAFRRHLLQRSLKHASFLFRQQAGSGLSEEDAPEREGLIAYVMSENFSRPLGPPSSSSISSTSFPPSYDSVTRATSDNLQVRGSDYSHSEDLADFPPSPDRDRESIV

| Structure (SMILES) | IC50 [1] [nM] | IC50 (MCF7 cell) [nM] | Emax (MCF7 cell) [%] | IC50 (MCF7 D538G) [nM] | Emax (MCF7 D538G) [%] | IC50 (MCF7 ERαY537S) [nM] | Emax (MCF7 ERαY537S) [%] | Covalent modification effect on the estrogen receptor ERα wild-type [2] [%] | Covalent modification effect on the estrogen receptor ERα Y537S mutant-type [3] [%] | IC50 (Nav1.5 ion channel) [nM] |
| --- | --- | --- | --- | --- | --- | --- | --- | --- | --- | --- |
| CN(C)C(=O)/C=C/CN1CCC[C@@H](Oc2ccc(/C(=C(/CC(F)(F)F)c3ccc(F)cc3)c3ccc4[nH]nc(F)c4c3)cn2)C1 [Example 19, (E)-N,N-Dimethyl-4-((R)-3-((5-((Z)-4,4,4-trifluoro-1-(3-fluoro-1H-indazol-5-yl)-2-(4-fluorophenyl)but-1-en-1-yl)pyridin-2-yl)oxy)piperidin-1-yl)but-2-enamide] | 4 | 0.4 | 97 | 2 | 97 | 2 | 106 | 94 | 97 | – |
| CN(C)C(=O)/C=C/CN1CCC[C@@H](Oc2ccc(/C(=C(/CC(F)(F)F)c3ccc(C(F)(F)F)cc3)c3ccc4[nH]nc(F)c4c3)cn2)C1 [Example 22, (E)-N,N-Dimethyl-4-((R)-3-((5-((Z)-4,4,4-trifluoro-1-(3-fluoro-1H-indazol-5-yl)-2-(4-(trifluoromethyl)phenyl)but-1-en-1-yl)pyridin-2-yl)oxy)piperidin-1-yl)but-2-enamide] | 24 | 4 | 103 | 15 | 93 | 15 | 97 | 95 | 100 | – |
| CN(C)C(=O)/C=C/CN1CCC[C@@H](Oc2ccc(/C(=C(/CC(F)(F)F)c3ccc(S(C)(=O)=O)cc3)c3ccc4[nH]nc(F)c4c3)cn2)C1 [Example 23, (E)-N,N-Dimethyl-4-((R)-3-((5-((Z)-4,4,4-trifluoro-1-(3-fluoro-1H-indazol-5-yl)-2-(4-(methylsulfonyl)phenyl)but-1-en-1-yl)pyridin-2-yl)oxy)piperidin-1-yl)but-2-enamide] | 13 | 1 | 97 | 7 | 101 | 5 | 94 | 95 | 99 | – |
| CN(C)C(=O)/C=C/CN1CCC[C@@H](Oc2ccc(/C(=C(/CC(F)(F)F)c3ccc(C#N)cc3)c3ccc4[nH]nc(F)c4c3)cn2)C1 [Example 24, (E)-4-((R)-3-((5-((Z)-2-(4-Cyanophenyl)-4,4,4-trifluoro-1-(3-fluoro-1H-indazol-5-yl)but-1-en-1-yl)pyridin-2-yl)oxy)piperidin-1-yl)-N,N-dimethylbut-2-enamide] | 9 | 1 | 98 | 8 | 94 | 8 | 102 | 90 | 99 | – |
| CN(C)C(=O)/C=C/CN1CCC[C@@H](Nc2ccc(/C(=C(/CC(F)(F)F)c3ccccc3)c3ccc4[nH]nc(F)c4c3)cn2)C1 [Example 31, (E)-N,N-Dimethyl-4-((R)-3-((5-((Z)-4,4,4-trifluoro-1-(3-fluoro-1H-indazol-5-yl)-2-phenylbut-1-en-1-yl)pyridin-2-yl)amino)piperidin-1-yl)but-2-enamide] | 6 | 0.7 | 97 | 2 | 101 | 3 | 105 | 80 | 83 | – |
| O=C(/C=C/CN1CCC[C@@H](Nc2ccc(/C(=C(/CC(F)(F)F)c3ccccc3)c3ccc4[nH]nc(F)c4c3)cn2)C1)N1CCOCC1 [Example 32, (E)-1-Morpholino-4-((R)-3-((5-((Z)-4,4,4-trifluoro-1-(3-fluoro-1H-indazol-5-yl)-2-phenylbut-1-en-1-yl)pyridin-2-yl)amino)piperidin-1-yl)but-2-en-1-one] | 28 | 5 | 100 | 11 | 95 | 19 | 84 | 94 | 95 | – |
| O=C(/C=C/CN[C@H]1CCCN(c2ccc(/C(=C(/CC(F)(F)F)c3ccccc3)c3ccc4[nH]nc(F)c4c3)cn2)C1)N1CCOCC1 [Example 38, (E)-1-Morpholino-4-(((S)-1-(5-((Z)-4,4,4-trifluoro-1-(3-fluoro-1H-indazol-5-yl)-2-phenylbut-1-en-1-yl)pyridin-2-yl)piperidin-3-yl)amino)but-2-en-1-one] | 5 | 0.8 | 96 | 2 | 108 | 4 | 102 | 95 | 96 | – |
| O=C(/C=C/CNCCOc1ccc(/C(=C(/CC(F)(F)F)c2ccccc2)c2ccc3[nH]nc(F)c3c2)cn1)N1CCOCC1 [Example 43, (E)-1-Morpholino-4-((2-((5-((Z)-4,4,4-trifluoro-1-(3-fluoro-1H-indazol-5-yl)-2-phenylbut-1-en-1-yl)pyridin-2-yl)oxy)ethyl)amino)but-2-en-1-one, reference compound] | – | – | – | – | – | – | – | – | – | 2700 |
